The text below walks through data of patent US8188070B2, “Method of treating neurological diseases and disorders” (The Trustees of the University of Pennsylvania, priority 2002, dated 2012).

Data set [1] deals with S5 cells. Briefly: High throughput screen: ATP level (viable cells) in S5 cells with reduced SMN. The class given is cell-based, chicken. As to conditions: for EC50 / Emax: Gallus gallus, S5 cells, 18 ng/ml tet, 0.5 to 20 μM; for EC50: ATP level, read-out: EC50 (effective concentration for half maximum activity); for Emax: percentage increase of ATP level relative to cells treated with DMSO only, read-out: Maximum Activity (%). How it is done:
In the SMN conditional knockout cell line, S5, the endogenous smn gene is disrupted by homologous recombination, and the SMN protein is stably expressed from an SMN cDNA under the control of a tetracycline (tet)-repressible promoter (Wang and Dreyfuss (2001) supra).
Libraries of compounds were screened against the S5 cell line. […] The cells were incubated for an additional 72 hours and the number of viable cells in each well was determined by measuring the ATP level in the cell lysate, a sensitive assay commonly used to assess cell viability in HTS (Crouch, et al. (1993) J. Immunol. Methods 160:81-88). […] Activity of the compounds was measured as the difference between the sample and the average of the controls.
(§1) The activities of all compounds were further examined at concentrations ranging from 0.5 to 20 μM. […] The activity of each compound was determined as a percentage increase of the ATP level, reflecting the number of viable cells, relative to cells treated with an equal volume of DMSO only.
The chicken pre-B cell line DT40, the smn conditional knockout cell line S5 and the asf/sf2 conditional knockout cell line ASF-DT40 (Wang, et al. (1996) supra) were maintained using known methods (Wang and Dreyfuss (2001) supra). To reduce the SMN level, S5 cells were incubated with 18 ng/ml tetracycline hydrochloride (tet). Similarly, ASF-DT40 cells were treated with 14 ng/ml tet to partially deplete the ASF/SF2 protein.
After being incubated in medium containing 18 ng/ml tet for 24 hours, S5 cells were dispensed into 96-well plates at 120 μl per well. Compounds were added to these cells by pipetting 0.4 μl of the 3 mM libraries into each well to reach a final concentration of 10 μM. The 96-well plates were further incubated for 72 hours at 37° C. with 5% CO2. […] Luminescence was read on a Wallac Victor2 multi-channel plate reader (Perkin-Elmer, Boston, Mass.). The cellular ATP level is a direct measure of the number of viable cells in each well (Crouch, et al. (1993) supra). Data from luminescence readings were analyzed with MICROSOFT® Excel.

Data set [2] concerns S5 cells. As to conditions: for highest concentration at which there is no apparent cell toxicity: S5 cells. How it is done: as §1
SMN protein levels were also determined. Total cell lysates from treated cells were prepared and analyzed by immunoblotting with an anti-SMN antibody. […] The same blots were probed with antibodies against two other abundant proteins, Y14^10 and β-tubulin, to provide an internal control for the amount of cell lysate loaded on the gel.

The subject of data set [3] is S5 cells. Briefly: Cell number determination in S5 cells cultured with 18 ng/ml tet. The class given is cell-based, chicken. As to conditions: after 96 hours. On the procedure: To determine an accurate measure of the number of viable cells, cell numbers were also determined.
[4] abbreviates: high-throughput screening system.

`Clc1ccc(C(c2ccc(Cl)cc2)n2cc[n+](CC(OCc3ccc(Cl)cc3Cl)c3ccc(Cl)cc3Cl)c2)cc1` (centres unmarked) [Calmidazolium, reference compound]: in data set [1] (setting [4]), the “concentration improving growth of S5 cells (as low as)” value was found to be 215 nM and the “growth of S5 cells” value was “improved the growth of S5 cells”.

Regarding `CN(C)CCC=C1c2ccccc2CCc2ccccc21` [Compound 1], in data set [1], the EC50 turned out to be 3000 nM and the Emax came to 30%.

With `CNCCCN1c2ccccc2CCc2ccccc21` [Compound 2], in data set [1], the EC50 amounted to 3000 nM and the Emax is 30%.

`CN(C)CC/C=C1/c2ccccc2COc2ccccc21` [Compound 3]: in data set [1], the EC50 is 5000 nM and the Emax stood at 60%.

As to `CN(C)CCCN1c2ccccc2CCc2ccccc21` [Compound 4], in data set [1], the EC50 turned out to be 4000 nM and the Emax was 35%.

In the case of `CN1CCN2c3ccccc3Cc3ccccc3C2C1` (centres unmarked) [Compound 5], in data set [1], the EC50 was found to be 5000 nM and the Emax came out at 75%. Further, the cell toxicity result in data set [2] was “low cell toxicity”.

On to `CC(CN(C)C)CN1c2ccccc2CCc2ccccc21` (centres unmarked) [Compound 6], for which, in data set [1], the EC50 came out at 2500 nM and the Emax was 50%.

For the compound `CN(C)CCC=C1c2ccccc2C=Cc2ccccc21` [Compound 7], in data set [1], the EC50 was 3000 nM and the Emax was determined as 45%.

`CSc1ccc2c(c1)C(N1CCN(C)CC1)Cc1ccccc1S2` (centres unmarked) [Compound 8]: in data set [1], the EC50 is less than 1000 nM and the Emax amounted to 25%.

Turning to `CN(C)CCCN1c2ccccc2CCc2ccc(Cl)cc21` [Compound 9], in data set [1], the EC50 was found to be 1500 nM and the Emax is 50%.

On to `CN1CCN(C2=Nc3cc(Cl)ccc3Nc3ccccc32)CC1` [Compound 10], for which, in data set [1], the EC50 turned out to be 3000 nM and the Emax worked out at 30%.

With `CN(C)CCCN1c2ccccc2Sc2ccccc21` [Compound 11], in data set [1], the EC50 came to 2500 nM and the Emax was found to be 60%.

As to `CC(CN1c2ccccc2Sc2ccccc21)N(C)C` (centres unmarked) [Compound 12], in data set [1], the EC50 was 2500 nM and the Emax was 75%. The “increase in cell number over control cells treated with DMSO alone” value in data set [3] is given as “three to four-fold increase in cell number”.

`CC(CN(C)C)CN1c2ccccc2Sc2ccccc21` (centres unmarked) [Compound 14]: in data set [1], the EC50 came out at 2500 nM and the Emax was 40%.

In the case of `CCN(CC)C(C)CN1c2ccccc2Sc2ccccc21` (centres unmarked) [Compound 15], in data set [1], the EC50 is 2000 nM and the Emax turned out to be 70%.

With `CCC(=O)c1ccc2c(c1)N(CC(C)N(C)C)c1ccccc1S2` (centres unmarked) [Compound 16], in data set [1], the EC50 was 1000 nM and the Emax came out at 60%. Besides, the “highest concentration at which there is no apparent cell toxicity” value in data set [2] was found to be 4 µM.

In the case of `CSc1ccc2c(c1)N(CCC1CCCCN1C)c1ccccc1S2` (centres unmarked) [Compound 17], in data set [1], the EC50 was 1500 nM and the Emax is 80%. For the same compound, in data set [2], the “highest concentration at which there is no apparent cell toxicity” value stood at 4 µM. Moreover, the “increase in cell number over control cells treated with DMSO alone” value in data set [3] is reported as “three to four-fold increase in cell number”.

With `CN(C)CCCN1c2ccccc2Sc2ccc(C(F)(F)F)cc21` [Compound 18], in data set [1], the EC50 stood at 1500 nM and the Emax is 25%.

Regarding `CN(C)CC/C=C1\c2ccccc2Sc2ccc(Cl)cc21` [Compound 19], in data set [1], the EC50 was 2000 nM and the Emax was 30%.

For `CN(C)CCCN1c2ccccc2Sc2ccc(Cl)cc21` [Compound 20], in data set [1], the EC50 amounted to 1000 nM and the Emax was 35%. The “highest concentration at which there is no apparent cell toxicity” value in data set [2] was 4 µM.

With `CN1CCC(OC(c2ccccc2)c2ccccc2)CC1` [Compound 21], the Emax in data set [1] turned out to be 55%.

For the compound `O=C(CCCN1CC=C(n2c(=O)[nH]c3ccccc32)CC1)c1ccc(F)cc1` [Compound 22], the Emax in data set [1] stood at 50%.

With `CCN1CCCC(OC(=O)C(c2ccccc2)c2ccccc2)C1` (centres unmarked) [Compound 23], in data set [1], the Emax amounted to 50%.

Consider `CN1Cc2c(N)cccc2C(c2ccccc2)C1` (centres unmarked) [Compound 24], for which the Emax in data set [1] amounted to 35%.

Take `COC(=O)[C@H](c1ccccc1Cl)N1CCc2sccc2C1` [Compound 25]: in data set [1], the EC50 worked out at 7000 nM and the Emax was found to be 100%.

Regarding `Cc1nc2sccn2c(=O)c1CCN1CCC(=C(c2ccc(F)cc2)c2ccc(F)cc2)CC1` [Compound 27], the Emax in data set [1] is 80%.

Take `O=C(CCCN1CCC2(CC1)C(=O)NCN2c1ccccc1)c1ccc(F)cc1` [Compound 29]: the Emax in data set [1] was determined as 140%.

As to `COc1ccc(S(=O)(=O)Nc2ccccc2CN(C)CC=Cc2ccc(Cl)cc2)cc1` [KN-92, 2-[N-(4-Methoxybenzenesulfonyl)] amino-N-(4-chlorocinnamyl)-N-methylbenzylamine, reference compound], the “growth of S5 cells” value in data set [1] (setting [4]) is “did not affect the growth of S5 cells”.

As for `COc1ccc(S(=O)(=O)N(CCO)c2ccccc2CN(C)CC=Cc2ccc(Cl)cc2)cc1` [KN-93, reference compound], in data set [1] (setting [4]), the “growth of S5 cells” value is recorded as “improved the growth of S5 cells”.
